Results as given in patent US9895363B2, “Methods for modulating function of proliferating cell nuclear antigen (PCNA) and treating cancer with PCNA-targeting compounds” (University of Cincinnati, priority 2010, dated 2018).

What was measured:
[1] = system: 22Rv1 prostate cancer cells; test: Growth inhibition by MTT staining, 22Rv1; format: cell-based; settings: 22Rv1, 96 h, Human tumor cells, treated four days
Procedure: (§1) Growth inhibitory effects of PCNA-I1 and PCNA-I2 were assessed in human cancer cell lines, mouse cancer cell lines, immortalized mouse cell lines, and human primary cell lines. Specifically, growth inhibitory effects of PCNA-I1 and PCNA-I2 were assessed using MTT staining in the following cells lines: 1) human cancer cell lines including LNCaP (androgen receptor […]), 22Rv1, DU-145, LAPC-4, and PC-3 (androgen receptor […]) prostate cancer cells; MCF-7 and T47D breast cancer cells; A375 and MDA-MB435 melanoma cells; 2) mouse cancer cell lines including TRAMP-C2RE3 prostate cancer cells, B16 and K1735 melanoma cells, UV2237 fibrosarcoma cells, and CT-26 colon cancer cells; 3) immortalized mouse lung cell lines and mouse endothelial cell lines; and 4) primary human cell lines including umbilical endothelial cells (HUVEC, PromoCell, Heidelberg, Germany), primary bone marrow mesenchymal stem cells (HuMSC, PromoCell), primary human mammary epithelial cells (HuBrEC, Lonza, Walkersville, Md.), primary human prostate epithelial cells (HuPrEC, Lonza), and primary mouse spleen lymphocytes (isolated in this laboratory), and primary mouse bone marrow stromal cells (isolated in this laboratory). […]
(§2) IC50 values were derived from growth inhibition curves. […] Inhibition of cell growth was calculated using the formula: growth inhibition (%)=(1−A570 of treated/A570 of control)×100. […]

[2] = system: Normal Cells; test: Growth inhibition, mean over normal cells; format: cell-based
Procedure: as §1, §2

[3] = system: 22Rv1 cells; test: 22Rv1 tumor model in male nude mice; format: in vivo; settings: 10 mg/kg i.p., three times/week
Procedure: The therapeutic effects of PCNA-I1 were evaluated in LNCaP cells and 22Rv1 tumor models. LNCaP or 22Rv1 cells (1-2×10^6 cells in gelfoam) were implanted into the subcutis of male nude mice. From four to five days later, tumor-bearing mice were intraperitoneally injected with 10 mg/kg or 50 mg/kg of PCNA-I1. The therapy was continued at three times/week until termination of experiments. Control and treated tumor-bearing mice were monitored daily. Mouse body weight was recorded for toxicity evaluation twice a week and tumor size was measured using calipers twice a week. The experiments were terminated when mice in control groups were moribund. Additionally, to further evaluate potential liver and renal toxicity of PCNA-I1, the blood of tumor-bearing mice were sampled after the treatment with PCNA-I1 for 8 weeks.

[4] = target: T1, PCNA (Homo sapiens, UniProt P12004); test: Association of PCNA with chromatin, PC-3 (NP-E/NP-R western blot); format: cell-based
T1 construct: endogenous PCNA was knocked down with transfection of PCNA-specific siRNA; endogenous in cells; host or cells: PC-3
Procedure: The encircling of DNA and association with chromatin is required for PCNA to execute its function. Therefore, the effect of PCNA-I1 on the association of PCNA with chromatin was investigated. PC-3 cells were treated for various times with 0.5 μM of PCNA-I1 and lysed in buffer A (10 mM Tris-HCl, pH 7.4, 2.5 mM MgCl2, 0.5% NP-40, 1 mM DTT, 1 mM PMSF, and protease inhibitor cocktail). Samples were pelleted by centrifuge (1500×g, 2 min, 4° C.), and supernatant collected as NP-40-extractable ([…]) fraction. The pellet was washed in NP-40 buffer B (10 mM Tris-HCl, pH 7.4, 150 mM NaCl, 1 mM PMSF, and a protease inhibitor cocktail) to release the free form of PCNA. The cells were resuspended and digested in buffer C (10 mM Tris-HCl, pH 7.4, 10 mM NaCl, 5 mM MgCl2, 0.2 mM PMSF, and protease inhibitors) with 200 units/[…] of DNase I for 30 min at 37° C. After centrifugation at 13,000×g for 5 min at 4° C., the supernatant was collected and fractions were analyzed by western blotting. MCF-7, HeLa, and LNCaP cells were also subjected to treatment with 0.5 μM of PCNA-I1 and subjected to western blotting as previously discussed.

[5] = target: T1, PCNA; test: Euchromatin- and heterochromatin-associated PCNA; format: cell-based; settings: PC-3, 0.5 μM, 8 H; FIG. 12
Procedure: Differential effects of PCNA-I1 on the level of euchromatin- (often under active gene transcription) and heterchromatin (often under limited gene transcription) associated PCNA were also investigated. Specifically, PC-3 cells were treated for 8 H with 0.5 μM of PCNA-I1 and PCNA was extracted by procedures known in the art with a combination of limited digestion with micrococcal nuclease and treatment with EDTA to obtain total (S1), euchromatin-associated (S2), and heterochromatin-associated (S3). The extracts were subjected to western blotting analysis.

T1 sequence (P12004 whole entry): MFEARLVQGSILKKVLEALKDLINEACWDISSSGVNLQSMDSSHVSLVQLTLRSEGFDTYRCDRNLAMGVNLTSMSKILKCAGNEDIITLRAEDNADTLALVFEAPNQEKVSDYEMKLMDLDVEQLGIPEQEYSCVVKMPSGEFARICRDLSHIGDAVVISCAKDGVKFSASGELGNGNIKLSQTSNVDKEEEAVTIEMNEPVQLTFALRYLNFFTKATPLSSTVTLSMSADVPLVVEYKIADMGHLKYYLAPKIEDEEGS

Cc1ccsc1C(=O)N/N=C/c1ccc2ccccc2c1O [PCNA-I1]
IC50 [1]: 180 nM
IC50 ([2]; mean over all normal cells, read-out: IC50 Values, Normal Cells, Mean ± SD): 1430 ± 450 nM
Concentrations inhibiting growth of normal cells by 50% relative to those for tumor cells ([2]; normal vs tumor cells, p<0.001): approximately 8 times
Tumor growth, 22Rv1 model [3]: retarded tumor growth
PCNA in NP-E fraction (free-form PCNA), time course ([4]; PC-3, 0.5 μM, FIG. 10(A)): not significantly altered in cells treated by PCNA-I1 for up to 8 H but reduced in cells treated for 16 H
PCNA in NP-R fraction (chromatin-associated PCNA), time course ([4]; PC-3, 0.5 μM, FIG. 10(A)): reduced in 1 to 2 H
Chromatin-associated and free form PCNA, concentration dependence ([4]; PC-3, FIG. 10(B)): at concentration of 0.5 μM or lower mainly reduced the level of chromatin-associated PCNA and at concentration of 1 μM or higher led to a reduction of both the chromatin-associated and free form PCNA
Euchromatin- and heterochromatin-associated PCNA [5]: reduced both euchromatin- and heterochromatin protein 1α
